Laboratory results published in patent US12263248B2, “Compounds and compositions for intracellular delivery of therapeutic agents” (ModernaTX, Inc., priority 2018, dated 2025).
Entries after “also recorded” stand apart in the source; their conditions may differ.

Tests used:
[1] = Apparent (surface) pKa of the LNP formulation (TNS assay); assay type: physicochemical
Summary of the method: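 Fluorescence of TNS probe added to LNP samples (mRNA 0.04 mg/mL) was read across 21 buffers of pH about 3-12, triplicate per pH. The inflection point of the sigmoidal fluorescence-vs-pH curve, […], gives apparent pKa; method validated in 1× PBS and Tris/sucrose buffer.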

[2] = tested on: luciferase (Luc) mRNA; assay: Luc expression, whole body bioluminescence after intravenous administration to mice; assay type: in vivo; settings: for Total Flux 3 hours / Total Flux 6 hours / Total Flux 24 hours: Luc mRNA; for Fold increase in total body Luc Flux relative to MC3 at 6 h: Table 3A; for Fold increase in Luc expression relative to MC3, Intravenous (0.5 mpk dose) / luciferase activity relative to MC3 LNP control: intravenous; for luciferase activity relative to MC3 LNP control: 0.5 mg/kg (mRNA dose)
Summary of the method: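 Bioluminescence, read as region-of-interest total flux at 3, 6 and 24 h, followed a single 0.5 mg/kg intravenous dose of Luc mRNA-loaded nanoparticles in mice (n=6). Luciferin substrate (200 μL, 15 mg/mL in PBS) was injected intraperitoneally into CD-1 mice 15 minutes ahead of each imaging point.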

[3] = lipid nanoparticle, ±SD within one assay run (Table 37)

Structure (SMILES) | pKa ([1]; Table 1A) | Total Flux 3 hours ([2]; mice, i.v., 0.5 mg/kg) | Total Flux 6 hours ([2]; mice, i.v., 0.5 mg/kg) | Total Flux 24 hours ([2]; mice, i.v., 0.5 mg/kg) | surface pKa ([1]; LNP, Example 26) | pKa ([1]; Table 6) | pKa [1, 3] | Fold increase in total body Luc Flux relative to MC3 at 6 h ([2]; i.v. administration) | Fold increase in Luc expression relative to MC3, Intravenous (0.5 mpk dose) [2] | luciferase activity relative to MC3 LNP control ([2]; mice) | 6 h Lipid/MC3 Avg. Luc Expression ([2]; Table 3C, i.v. administration) | Fold increase AUC Lipid/MC3 ([2]; Table 3C, i.v. administration) | AUC (h * p/s) ([2]; Table 3C, i.v. administration, Luc) | total flux at 3 hours ([2]; mice, i.v., 0.5 mg/kg, comparison in words) | Lipid/MC3 Luc expression ([2]; 0.5 mpk dose to mouse, 6 hours after administration) | fold increase in Luc expression over MC3 formulations ([2]; intravenous administration, in words) | luciferase activity relative to MC3 LNP control ([2]; mice, 0.5 mg/kg)
CCCCCCCCCOC(=O)CCCCCCCN(CCO)CCCCCCC(=O)OCC(CCCCCCCC)CCCCCCCC [Compound 143, Nonyl 8-((2-hydroxyethyl)(7-((2-octyldecyl)oxy)-7-oxoheptyl)amino)octanoate] | 6.47 | 1.76E+10 | 2.03E+10 | 2.47E+08 | – | – | – | – | – | – | – | – | – | – | – | – | –
CCCCCCCCC(CCCCCCCC)OC(=O)CCCCCCCN(CCO)CCCCCCCC(=O)OC(CCCCCCCC)CCCCCCCC [Compound 29, Di(heptadecan-9-yl) 8,8′-((2-hydroxyethyl)azanediyl)dioctanoate] | 6.00 | 4.61E+09 | 2.89E+09 | 3.55E+08 | 6.00 | 6.00 | 6.00 ± 0.24 | 0.78 | 1.03 | lower luciferase activity | – | – | – | – | – | – | –
CCCCCCCCCOC(=O)CCCCCCCN(CCCCCCCC(=O)OC(CCCCCCCC)CCCCCCCC)C[C@H](C)O [Compound 12, Heptadecan-9-yl (S)-8-((2-hydroxypropyl)(8-(nonyloxy)-8-oxooctyl)amino)octanoate] | 5.99 | 5.14E+09 | 1.27E+10 | 2.45E+08 | – | – | – | – | – | – | – | – | – | – | – | – | –
CCCCCCCCCOC(=O)CCCCCCCN(CCO)CCCCCCCCCC(=O)OC(CCCCCC)CCCCCC [Compound 147, Tridecan-7-yl 10-((2-hydroxyethyl)(8-(nonyloxy)-8-oxooctyl)amino)decanoate] | 6.66 | 3.24E+10 | 4.87E+10 | 3.32E+08 | – | – | – | – | – | – | 6.68 | 6.83 | 5.63E+11 h * p/s | – | – | – | –
CCCCCCCCC(CCCCCCCC)OC(=O)CCCCCCCN(CCO)CCCCCC [Compound 5, Heptadecan-9-yl 8-(hexyl(2-hydroxyethyl)amino)octanoate] | 6.84 | 2.77E+08 | 1.76E+08 | 2.40E+07 | – | – | – | 0.005 | – | – | – | – | – | – | – | – | –
CCCCCCCCC(CCCCCCCC)OC(=O)CCCCCCCN(CCO)CCCCCCCC(=O)OCC1CC1CCCCCC (stereo not drawn) [Compound 28, Heptadecan-9-yl 8-((8-((2-hexylcyclopropyl)methoxy)-8-oxooctyl)(2-hydroxyethyl)amino)octanoate] | 6.04 | 8.98E+10 | 1.13E+11 | 1.20E+09 | – | – | – | 2.46 | – | – | – | – | – | highest | – | – | –
CCCCCCCCCOC(=O)CCCCCCCN(CCO)CCCCCCCC(=O)N(CCCCCCCC)CCCCCCCC [Compound 144, Nonyl 8-((8-(dioctylamino)-8-oxooctyl)(2-hydroxyethyl)amino)octanoate] | 7.09 | 9.50E+09 | 1.82E+09 | 3.36E+08 | – | – | – | – | – | – | – | – | – | – | – | – | –
CCCCCCCCCOC(=O)CCCN(CCO)CCCCCCCC(=O)OC(CCCCCCCC)CCCCCCCC [Compound 26, Heptadecan-9-yl 8-((2-hydroxyethyl)(4-(nonyloxy)-4-oxobutyl)amino) octanoate] | 6.64 | 6.75E+10 | 1.57E+10 | 1.54E+09 | – | 6.64 | 6.64 ± 0.14 | 4.24 | 4.24 | – | – | – | – | – | 4.24 | highest fold increase | higher expression compared to MC3; also recorded: highest luciferase activity of the series
